In patent US4970214A, “Quinoline substituted oxomethyl or thioxomethyl glycine derivatives and aldose reductase inhibition therewith” (Nippon Shinyaku Co., Ltd., priority 1986, dated 1990):

Key:
[1] = system: Accumulation of Galactitol in sciatic nerve; test: Accumulation of galactitol in sciatic nerve after single oral galactose; format: in vivo, rat (Sprague-Dawley); conditions: 4 hours prior to 5 g/kg galactose, rats sacrificed after 3 hours
Method: (B) Male rats of Sprague-Dawley strain (body weight: 150 to 200 g) were fasted overnight and used in the test (one group comprised 4 rats). To all groups were given 5 g/kg of galactose orally, then the rats were sacrificed after 3 hours, and sciatic nerve was taken out and weighed. The content of galactitol in the sciatic nerve was measured by high performance liquid chromatography in accordance with a method by Jean-Marie Dethy (Anal. Biochem. 143, 119, 1984). The test compound was given orally 4 hours prior to the administration of galactose. To the control group was given 0.5% methylcellulose.

Male mice of ddY strain = test: Acute toxicity, oral, rate of death and general symptoms; format: in vivo; conditions: for rate of death: two weeks
Description: Male mice of ddY strain (5 weeks of age) were used (one group comprised 4 to 5 mice).

[2] = system: amounts of inositol and galactitol in the sciatic nerve; test: Inositol and galactitol in sciatic nerve of rats fed 20% galactose diet for 4 days; format: in vivo, rat (Sprague-Dawley); conditions: 9 a.m. and 5 p.m., rat sciatic nerve
Method: (C) Non-fasted male rats of Sprague-Dawley strain (5 rats in one group) of 150-220 g body weight were used. To all groups was administered 20% galactose diet (a mixture of galactose and F-2 which is a product of Funahashi Farm) and fed for 4 days. The test compound was given orally at 9 a.m. and 5 p.m. from the first to the fourth day. On the fifth day, the rats were sacrificed, sciatic nerve was taken out, and the amounts of inositol and galactitol in the sciatic nerve were measured by the method as given before.

aldose reductase [3] = biological target: T1, aldose reductase (Bos taurus, UniProt P16116); test: Activity of aldose reductase, in vitro; format: biochemical; conditions: aldose reductase from crystal eye of cow
T1 construct: The aldose reductase used was that obtained from crystal eye of cow; from tissue; host or cells: cow eye lens
Description: The aldose reductase used was that obtained from crystal eye of cow and the measurement was done in vitro.

aldose reductase [4] = test: Aldose reductase inhibiting action (statement in words, test not described)

SMILES | Inhibition rate (%) against Accumulation of Galactitol in sciatic nerve ([1]; 10 mg/kg oral) [%] | Inhibition rate (%) against Accumulation of Galactitol in sciatic nerve ([1]; 20 mg/kg oral) [%] | Inhibition rate (%) against Accumulation of Galactitol in sciatic nerve ([1]; 50 mg/kg oral) [%] | Inhibition rate (%) against Accumulation of Galactitol in sciatic nerve ([1]; 100 mg/kg oral) [%] | rate of death (Male mice of ddY strain; 500 mg/kg oral) | rate of death (Male mice of ddY strain; 1000 mg/kg oral) | Inhibition Rate (%) ([2]; 5 mg/kg oral) | Inhibition Rate (%) ([2]; 10 mg/kg oral) | Inhibition Rate (%) ([2]; 20 mg/kg oral) | IC50 (aldose reductase [3]) [µM] | aldose reductase inhibiting action (aldose reductase [4]) | case of death (Male mice of ddY strain; 3 g/kg oral)
COc1ccc2c(C(=S)N(C)CC(=O)O)cccc2c1C(F)(F)F [Tolrestat, reference compound] | 21.01 | 28.26 | 68.00 | 95.43 | 2/4 | 3/4 | 34 | 86 | 96 | – | – | –
Cc1cc(C(=S)N(C)CC(=O)OCCO)c2cccc(C(F)(F)F)c2n1 [Compound 2, β-Hydroxyethyl ester of N-[(2-methyl-8-trifluoromethylquinolin-4-yl)thioxomethyl]-N-methylglycine] | 45.37 | 91.28 | 98.19 | – | – | – | 27 | 46 | 77 | > 8.7 | – | –
O=C(O)CNC(=O)c1cc(-c2ccccc2)nc2ccccc12 [[(2-phenylquinolin-4-yl)carbonyl]glycine] | – | – | – | – | – | – | – | – | – | – | does not exhibit the aldose reductase inhibiting action | –
CN(CC(=O)OCCO)C(=S)c1cc(-c2ccccc2)nc2ccccc12 [Compound 1, β-Hydroxyethyl ester of N-[(2-phenylquinolin-4-yl)thioxomethyl]-N-methylglycine] | – | 54.88 | 84.57 | 92.57 | – | 0/4 | – | 45 | 67 | > 8.7 | – | no case of death
CCc1cc(C(=S)N(C)CC(=O)OCCO)c2cccc(C(F)(F)F)c2n1 [Compound 5, β-Hydroxyethyl ester of N-[(2-ethyl-8-trifluoromethylquinolin-4-yl)thioxomethyl]-N-methylglycine] | – | 13.98 | 79.66 | – | – | 0/4 | – | – | – | – | – | –
CN(CC(=O)OCCO)C(=S)c1cc(-c2ccccc2F)nc2cc(F)ccc12 [Compound 3] | – | 32.68 | 70.78 | – | – | 0/4 | – | 26 | 37 | > 8.7 | – | –
